The results in this text go back to patent publication US20070243548A1, “Calumenin-directed diagnostics and therapeutics for cancer and chemotherapeutic drug resistance” (priority 2006, published 2007).

Series [1] deals with MCF-7 cells. The series is described as follows: cells. The series is classed as cell-based, human. As for the experimental part: For a typical siRNA transfection, […] of the annealed siRNA duplex was mixed with 1.4 ml of Opti-MEM reagent (Invitrogen). In another tube, […] of Oligofectamine reagent (Invitrogen, Carlsbad, Calif.) was mixed with […] of Opti-MEM. The two solutions were combined and mixed gently by inversion and incubated for 20 min. at RT. The resulting solution was added to the cultured cells drop by drop in a 10 cm dish (cells are approximately 40-50% confluent). The next day the transfected cells were trypsinized and seeded in 6 or 96-well plates and further incubated for the indicated amount of time (assay dependent) before further analysis.
Cell survival was determined using the MTT cytotoxicity assay (see, e.g., Tokuyama et al. (2005) Anticancer Res. 25(1A): 17-22). Small interfering RNA transfected cells were seeded in triplicate into 96-well plates at 5×10^3 cells/well 48 hrs post-transfection. The cells were incubated for an additional 16 to 24 hrs before they were exposed to increasing concentrations of cytotoxic drugs. Doxorubicin (adriamycin), cisplatin, taxol, vinblastine, vincristine, and mitoxantrone were all purchased from Sigma Corp. (St. Louis, Mo.). Stocks were made as follows: 6 mM for doxorubicin, 1.1 mM for vincristine and vinblastine; 1.1 mM for taxol, 50 mM for cisplatin both in DMSO; and 0.97 mM mitoxantrone in ethanol. Appropriate dilutions were made in the respective media for each cell line. Following addition of drugs, incubation was continued for an additional 72 hrs. […] of MTT dye (5 mg/ml) were added into each well and the plate was further incubated at 37° C. for 4 hrs. The dye was solubilized with 10% Triton X-100, 0.01 N HCl and further incubated at 37° C. in the dark for 30 min. Cell viability was determined by measure of absorption at 570 nm in a Wallac multiwell plate reader (PerkinElmer, Inc., Boston, Mass.). The averages of triplicate wells were plotted using the Prism software (GraphPad Software, Inc., San Diego, Calif.).

The test system of series [2] is MCF-7 cells. In words: Phase contrast viability assay (cell morphology). Particulars: calumenin-depleted MCF-7 cells; FIG. 3. Format: cell-based, human.
A further series deals with MCF-7/ADR xenografts. The series is described as follows: Mammary adenocarcinoma MCF-7/ADR xenografts in nude mice. Format: in vivo. Particulars: adenocarcinomas, vs mice treated with control siRNA. As for the experimental part:
In further studies, the efficacy of a calumenin-targeted therapeutic in treating an MDR mammary adenocarcinoma cells (MCF/AR) is assessed. Briefly, male […] nude mice 5 to 7 weeks old, weighing 18 g to 22 g, are used for the MCF-7/ADR xenografts. Mice receive a subcutaneous (s.c.) injection of the cells using 5×10^5 cells/inoculation under the shoulder. When the s.c. tumor is approximately 5.5 mm in size, mice are randomized into treatment groups of 4 including controls and groups receiving taxol or doxorubicin, alone (4 mg/kg), intraperitoneally (i.p.) every 2 days, calumenin siRNA alone (3 μg daily for 16 days), or both taxol and calumenin siRNA (3 μg daily for 16 days for each treatment). […] The animal's weight is measured every 4 days. Tumor growth starting on the first day of treatment is measured and the volume of the xenograft is monitored every 4 days. […] Tumor tissue is excised from the mice and its weight is measured. […]
In further studies, the efficacy of a calumenin-targeted therapeutic in treating a mammary adenocarcinoma cells (MCF-7) is assessed. […] The animal's weight is measured every 4 days. Tumor growth starting on the first day of treatment is measured and the volume of the xenograft is monitored every 4 days. […] Tumor tissue is excised from the mice and its weight is measured. […]

Regarding “Calumenin siRNA: siRNA duplex targeting human calumenin mRNA; sense 5′-GAAGGACCGUGUACAUCAU-3′ (SEQ ID NO: 1), anti-sense 5′-AUGAUGUACACGGUCCUUC-3′ (SEQ ID NO: 2), 3′TT overhangs (3' TT overhangs on both strands, further chemistry not given here)”, in the series with MCF-7 cells [1], the “decrease in cell viability of MCF-7 cells” value stood at 48%. For the same substance, the cell morphology result with MCF-7 cells [2] was “more rounded cell morphology”. Besides, in the series on MCF-7/ADR xenografts, the “total cell number in tumors” value is reported as “lower”. The tumors by weight entry with MCF-7/ADR xenografts (3 μg siRNA daily for 16 days) is recorded as “smaller”.
